According to patent EP4800015A1, “AZABICYCLO DERIVATIVE AND PREPARATION METHOD THEREFOR, AND USE” (Zhejiang Hisun Pharmaceutical Co., Ltd., priority 2023, dated 2025):

What was measured:
[1] = Pharmacokinetic test in mice after intragastric administration; assay type: in vivo; settings: male, mouse, plasma, ICR mice, Oral (10 mg/kg)
Procedure: ICR mice were used as test animals, the plasma concentrations of the control compound HRO761 and the compounds of the present disclosure at different time points after intragastric administration were determined by LC/MS/MS method, and the pharmacokinetic characteristics of the compounds of the present disclosure in mice were studied.
ICR mice, male, 30.8 to 38.0 g, purchased from Vital River Laboratory Animal Technology Co., Ltd.
An appropriate amount of the test compound was weighed, and an appropriate amount of DMA (N,N-dimethylacetamide), 30% Solutol HS15 (30% polyethylene glycol-15 hydroxystearate), and Saline (saline) were added sequentially, the mixture was ultrasonicated and vortex mixed to prepare a 1 mg/mL dosing formulation. The ratio of DMA:30% Solutol HS15:Saline was 5:5:90 (v/v/v).
After overnight fasting, ICR mice in each test compound injection group (9 mice per group) were administered intragastrically (PO, compound dose was 10 mg/kg, administration volume was 10 mL/kg), and food was given 4 hours after administration.
About 0.1 mL of blood was collected via the orbital cavity before administration and at 0.25 h, 0.5 h, 1 h, 2 h, 4 h, 8 h, 10 h, and 24 h after administration, and whole blood samples were placed in anticoagulant tubes containing EDTA-K2. The samples were placed on ice after collection, and plasma was separated by centrifugation (centrifugation conditions: 1500 g, 10 minutes). The collected plasma was stored at -40 to -20 °C before analysis.
The content of the test compound in mouse plasma after intragastric administration was determined by LC-MS/MS.

RL95-2 cells = test: Inhibition of RL95-2 cell proliferation (CellTiter-Glo); assay type: cell-based; settings: Homo sapiens; RL95-2 cells (MSI-H), 120 hours
Method in brief: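 RL95-2 (MSI-H) cells, 500/well in DMEM/F12 with 10% FBS, adhered overnight, then treated 120 h at 37 °C, 5% CO2 with compound at final 1.52-10000 nM. Viability by CellTiter-Glo luminescence. Inhibition relative to 0.1% DMSO control; IC50 from nonlinear regression of log concentration versus inhibition.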

recombinant human WRN = target: T1, recombinant human WRN (Homo sapiens, UniProt Q14191); test: Inhibition of WRN enzyme activity (ATPase), ADP-Glo Kinase Assay; assay type: biochemical; settings: WRN protein 5 nM, Flap 0.1 nM, ATP 30 µM; read-out: IC50
T1 construct: purchased BPS 101264
T1 sequence (Q14191 whole entry): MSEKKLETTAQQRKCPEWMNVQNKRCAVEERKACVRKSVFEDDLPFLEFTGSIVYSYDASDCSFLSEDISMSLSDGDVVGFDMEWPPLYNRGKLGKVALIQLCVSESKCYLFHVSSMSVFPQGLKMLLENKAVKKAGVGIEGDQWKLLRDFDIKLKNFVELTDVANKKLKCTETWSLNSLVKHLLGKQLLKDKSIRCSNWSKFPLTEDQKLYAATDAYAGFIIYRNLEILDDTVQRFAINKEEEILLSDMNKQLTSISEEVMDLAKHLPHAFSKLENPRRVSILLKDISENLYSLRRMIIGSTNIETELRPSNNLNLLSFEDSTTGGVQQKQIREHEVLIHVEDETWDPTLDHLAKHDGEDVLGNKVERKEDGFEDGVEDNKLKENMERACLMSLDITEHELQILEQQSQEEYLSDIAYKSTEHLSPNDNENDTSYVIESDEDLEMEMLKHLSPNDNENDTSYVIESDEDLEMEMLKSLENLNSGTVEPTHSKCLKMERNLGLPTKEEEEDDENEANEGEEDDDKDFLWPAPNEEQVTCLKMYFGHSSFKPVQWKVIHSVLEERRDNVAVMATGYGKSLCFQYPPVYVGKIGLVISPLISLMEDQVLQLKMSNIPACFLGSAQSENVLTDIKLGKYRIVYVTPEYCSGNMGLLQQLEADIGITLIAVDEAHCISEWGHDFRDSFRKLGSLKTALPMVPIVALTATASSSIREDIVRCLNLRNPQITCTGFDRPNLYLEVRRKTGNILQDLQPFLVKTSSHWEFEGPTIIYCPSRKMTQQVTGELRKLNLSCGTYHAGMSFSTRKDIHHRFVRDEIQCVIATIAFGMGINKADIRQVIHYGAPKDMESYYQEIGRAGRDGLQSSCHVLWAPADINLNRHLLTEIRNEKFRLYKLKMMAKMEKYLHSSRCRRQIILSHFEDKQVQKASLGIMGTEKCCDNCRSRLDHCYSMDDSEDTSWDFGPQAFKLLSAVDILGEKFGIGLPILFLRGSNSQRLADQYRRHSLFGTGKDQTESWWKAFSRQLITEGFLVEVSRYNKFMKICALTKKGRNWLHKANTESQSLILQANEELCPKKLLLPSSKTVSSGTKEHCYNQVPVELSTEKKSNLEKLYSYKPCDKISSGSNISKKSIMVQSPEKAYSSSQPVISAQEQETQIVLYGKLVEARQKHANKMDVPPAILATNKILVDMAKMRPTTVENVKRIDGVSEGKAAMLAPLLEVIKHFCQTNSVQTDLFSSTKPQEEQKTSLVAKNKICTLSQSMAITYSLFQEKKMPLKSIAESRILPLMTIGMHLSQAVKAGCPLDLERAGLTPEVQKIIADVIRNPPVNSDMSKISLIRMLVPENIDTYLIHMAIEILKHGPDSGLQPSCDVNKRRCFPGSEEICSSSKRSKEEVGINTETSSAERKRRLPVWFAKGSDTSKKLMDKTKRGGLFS
Method in brief: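 Recombinant human WRN (5 nM) was preincubated with compound (1000–0.004 nM) for 15 min at room temperature. Flap26 5'-flap DNA (0.1 nM) and 30 µM ATP were then added for 10 min in Tris pH 7.5, MgCl2, NaCl, BSA, Pluronic buffer. ADP was detected by ADP-Glo luminescence, and IC50 was obtained by nonlinear regression versus a 0.1% DMSO control.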

SMILES: CCc1c(N2CCN(C(=O)c3ncnc(C)c3O)CC2)c(=O)n2nc(-c3cc4ccccc4s3)nc2n1CC(=O)Nc1ccc(C(F)(F)F)cc1Cl [Example 80, 2-(2-(benzo[b]thiophen-2-yl)-5-ethyl-6-(4-(5-hydroxy-6-methylpyrimidine-4-carbonyl)piperazin-1-yl)-7-oxo-[1,2,4]triazolo[1,5-a]pyrimidin-4(7H)-yl)-N-(2-chloro-4-(trifluoromethyl)phenyl)acet amide]
- AUC(0-t) ([1]; read-out: Area under curve AUC0-t): 104 µg·h/mL
- half-life ([1]; read-out: Half-life T1/2 (converted)): 2.11 h
- Cmax ([1]; read-out: Plasma concentration Cmax): 19800 ng/mL
- IC50 (RL95-2 cells): 1 to 100 nM
- IC50 (recombinant human WRN): 1 to 100 nM
